According to article PMC12794186, “Covalent Alkynylpyridopyrimidinones Targeting Cysteine 775 of the Epidermal Growth Factor Receptor Overcome Resistance to Current Therapies” (Journal of Medicinal Chemistry, 2025):
Read-outs that look alike come from different tables or passages of the source. Each block holds one compound with its values, some of them ahead of it.

Assays:
wild-type EGFR (WT-EGFR) = molecular target: T1, wild-type EGFR (WT-EGFR) (Homo sapiens, UniProt P00533); test: TR-FRET fluorescent probe displacement assay; type: binding
T1 construct: made in house; host or cells: SF9 insect cells (MultiBac)
Procedure: Compounds (dissolved to 100 mM in DMSO) were dispensed into black low volume 384 well assay plates (Corning) over a final concentration range of 100,000, 30,000, 10,000, 3000, 1000, 300, 100, 30, 10, and 3 nM using an Echo 550 (Labcyte). Positive control compound and DMSO as a negative control were dispensed into the first and last well, respectively. Each well was backfilled with DMSO to a final volume of 200 nL, resulting in final assay DMSO concentrations of 1%. […] The data were analyzed using Graphpad Prism/Dotmatics Studies Software. Assays conducted in technical replicate and repeated as a biological duplicate.

mLTC-EGFR = mLTC-EGFR (Homo sapiens, UniProt P00533, C797S/L858R/T790M); test: Intact protein mass spectrometry, covalent adduct formation; type: binding; settings: for Protein adduct formation: adduct stoichiometry by intact protein mass spectrometry; for covalent adduct formation, in words: intact protein mass spectrometry
[1] = molecular target: recombinant doubly mutated EGFR L858R, T790M kinase domain (mLT-EGFR) (Homo sapiens, UniProt P00533, L858R/T790M); test: Kinetic analysis (AssayQuant); type: biochemical; settings: for Ki: read-out: KI app
Procedure: Measurement of K I, K inact and K inact/K I was carried out by AssayQuant Technologies inc.

[2] = tested on: EGFR phosphorylation (Tyr1068) in H1975 (L858R, T790M) cells; test: Western blot of EGFR phosphorylation; type: cell-based
EGFR = test: Time-course of EGFR modification by mass spectrometry; type: binding; settings: within 10 min
Procedure: Peptides were detected in positive ion mode using electrospray ionization with nebulizer pressure of 35 psi, drying gas flow of 13 L/min and source gas temperature of 290 °C. Sheath gas temperature of 275 °C and gas flow of 12 L/min, capillary voltage of 4000 V and nozzle voltage of 300 V were also applied. Mass spectra were acquired using MassHunter Acquisition software (version B.08.00) over 100–1700 m/z range, at a rate of 5 spectra/s and 200 ms/spectrum, using standard mass range mode (3200 m/z) with extended dynamic range (2 GHz) and collection of both centroid and profile data. MS/MS fragmentation spectra were acquired over 100–3000 m/z range, at a rate of 3 spectra/s and 333.3 ms/spectrum. Acquired MS and MS/MS spectra were analyzed using Agilent MassHunter BioConfirm software (version B.10.00) against known amino acid sequences for EGFR for confirmation of covalent binding at Cys775. For the time course study, 150 μL EGFR (0.15 mg/mL) was incubated with compound 25328 to final concentration of 15 μM in a buffer solution of 20 mM Tris pH 8, 150 mM NaCl, 4% glycerol, 1 mM TCEP, 1% DMSO. […] Intact protein analysis perform as detailed above.

[3] = tested on: EGFR phosphorylation (Tyr1068) in H1975 (L858R, T790M) cells; test: HTRF cellular EGFR phosphorylation; type: cell-based; settings: Homo sapiens, NCI-H1975; read-out: pEGFR IC50 by HTRF
Procedure: Cells were plated at 20,000 cells per well in 96-well plates and placed at 37 °C with 5% CO2. Compounds were reconstituted in DMSO. Once adhered (after 24 h), cells were treated with compounds at a final concentration of 0.1% DMSO in media. Compounds were added to duplicate wells and incubated 37 °C for 3 h with 5% CO2. For A431 cells 0.5 h before the end of incubation; 100 ng/mL of EGF (Thermo Fisher, Cat. No. PHG0311) was added to all compound-treated cells as well as control. Compound and media were removed from the cells, and then 50 μL of HTRF lysis buffer was added (lysis buffer was diluted from 4× stock to 1× in deionized (DI) water, with 1% blocking agent also added). Cells were lysed on a plate shaker (2000 rpm) for 30 min at room temperature. pEGFR expression was assessed using the Human Phospho-EGFR (Tyr1068) cellular detection kit (Revvity, Cat. No. 64EG1PEH). Total EGFR expression was monitored using the Human Total EGFR cellular detection kit (Revvity, Cat. No. 64NG1PEH) as per the manufacturer’s instructions. […] Results were calculated as the ratio of pEGFR/total EGFR and then the percentage of 0 μM control.

BAF EGFR L858R cells = settings: BAF EGFR cell line; published compound, reference number not given; cited from earlier work
[4] = tested on: BAF EGFR L858R/C775S cells; settings: BAF EGFR cell line; published compound, reference number not given; cited from earlier work
[5] = TR-FRET, n > 3, read-out: WT-EGFR IC50
[6] = TR-FRET, n > 3, read-out: WT-EGFR pIC50 ± std dev (converted)
[7] = TR-FRET, read-out: WT-EGFR IC50
[8] = supplementary csv, read-out: WT pIC50 (converted)

- IC50 (wild-type EGFR (WT-EGFR); [5]): 57 nM
- IC50 (wild-type EGFR (WT-EGFR); [6]): 63.1 nM
SMILES: C#Cc1cc(=O)n(-c2ccccc2)c2nc(Nc3ccc(N4CCOCC4)cc3OC)ncc12 [Compound 5, 5-Ethynyl-2-((2-methoxy-4-morpholinophenyl)amino)-8-phenylpyrido[2,3-d]pyrimidin-7(8H)-one]

- IC50 (wild-type EGFR (WT-EGFR); [6]): 15800 nM
- IC50 (wild-type EGFR (WT-EGFR); [7]): 15000 nM
SMILES: COc1ccccc1Nc1ncc2ccc(=O)n(-c3ccccc3)c2n1 [Compound S10]

- Protein adduct formation (mLTC-EGFR): 1-3
SMILES: C#CC(=O)Nc1cccc(-c2nn(C)c3ncnc(N)c23)c1 [Compound S2]

- IC50 (wild-type EGFR (WT-EGFR); [5]): 4100 nM
- IC50 (wild-type EGFR (WT-EGFR); [6]): 3160 nM
SMILES: C#Cc1cc(=O)n(-c2ccccc2)c2nc(Nc3ccc(N(C)C(=O)CCOC)cc3OC)ncc12 [Compound 11, N-(4-((5-Ethynyl-7-oxo-8-phenyl-7,8-dihydropyrido[2,3-d]pyrimidin-2-yl)amino)-3-methoxyphenyl)-3-methoxy-N-methylpropanamide]

- Protein adduct formation (mLTC-EGFR): 1-4
SMILES: C#CC(=O)Nc1ccccc1Oc1ccc(-c2nn(C)c3ncnc(N)c23)cc1 [Compound S9]

- Protein adduct formation (mLTC-EGFR): 0
SMILES: C=CC(=O)NCc1cccc(-c2nn(C)c3ncnc(N)c23)c1 [Compound S3]

- IC50 (wild-type EGFR (WT-EGFR); [5]): 69 nM
- IC50 (wild-type EGFR (WT-EGFR); [6]): 63.1 nM
- kinact [1]: 0.0061 ± 0.00035 s⁻¹
- kinact/KI [1]: 3.7e+08 ± 3.8e+06 M⁻¹ s⁻¹
- Ki [1]: 16 ± 1.1 nM
SMILES: C#Cc1cc(=O)n(-c2ccccc2)c2nc(Nc3ccc(N4CCOCC4)cc3)ncc12 [Compound 6, 5-Ethynyl-2-((4-morpholinophenyl)amino)-8-phenylpyrido[2,3-d]pyrimidin-7(8H)-one]

- Protein adduct formation (mLTC-EGFR): 0-1
SMILES: C=CC(=O)Nc1ccccc1Oc1ccc(-c2nn(C)c3ncnc(N)c23)cc1 [Compound S8]

- IC50 (wild-type EGFR (WT-EGFR); [6]): > 100000 nM
- IC50 (wild-type EGFR (WT-EGFR); [7]): > 100000 nM
- covalent adduct formation, in words (mLTC-EGFR): reduced protein modulation
SMILES: C=Cc1cc(=O)n(-c2ccccc2)c2nc(Nc3ccccc3OC)ncc12 [Compound S11]

- Protein adduct formation (mLTC-EGFR): 1-2
SMILES: C#CC(=O)NCc1cc(=O)n(-c2ccccc2)c2nc(Nc3ccccc3OC)ncc12 [Compound S5]

- IC50 (wild-type EGFR (WT-EGFR); [7]): 48000 ± 16000 nM
- IC50 (wild-type EGFR (WT-EGFR); [8]): 50100 nM
SMILES: C#Cc1cc(-c2cnn3ccccc23)nc(Nc2ccccc2)n1 [Compound 2, 4-Ethynyl-N-phenyl-6-(pyrazolo[1,5-a]pyridin-3-yl)pyrimidin-2-amine]
- covalent adduct formation, in words (mLTC-EGFR): addition of a single adduct by mass spectrometry and a small amount of double adduct

- Protein adduct formation (mLTC-EGFR): 0
SMILES: C=CC(=O)NCc1cc(=O)n(-c2ccccc2)c2nc(Nc3ccccc3OC)ncc12 [Compound S4]

- IC50 (wild-type EGFR (WT-EGFR); [5]): 3300 nM
- IC50 (wild-type EGFR (WT-EGFR); [6]): 3160 nM
- kinact [1]: 0.0035 ± 0.00072 s⁻¹
- kinact/KI [1]: 1.8e+07 ± 480000 M⁻¹ s⁻¹
- Ki [1]: 200 ± 45 nM
SMILES: C#Cc1cc(=O)n(-c2ccccc2)c2nc(Nc3ccc(N(C)C(=O)COC)cc3OC)ncc12 [Compound 10, N-(4-((5-Ethynyl-7-oxo-8-phenyl-7,8-dihydropyrido[2,3-d]pyrimidin-2-yl)amino)-3-methoxyphenyl)-2-methoxy-N-methylacetamide]

- Protein adduct formation (mLTC-EGFR): 0
SMILES: C=CC(=O)NCCOc1ccc(-c2nn(C)c3ncnc(N)c23)cc1 [Compound S7]

- IC50 (wild-type EGFR (WT-EGFR); [5]): 100 nM
- IC50 (wild-type EGFR (WT-EGFR); [6]): 100 nM
- IC50 (wild-type EGFR (WT-EGFR); [8]): 100 nM
SMILES: C#Cc1cc(=O)n(-c2ccccc2)c2nc(Nc3ccc(N4CCN(C)CC4)cc3OC)ncc12 [Compound 8, 5-Ethynyl-2-(2-methoxy-4-(4-methylpiperazine-1-ylphenyl)amino)-8-phenylpyrido[2,3-d]pyrimidin-7(8H)-one]

SMILES: C#Cc1cc(=O)n(-c2ccccc2)c2nc(Nc3ccccc3OC)ncc12 [Compound 3, 5-Ethynyl-2-[(2-methoxyphenyl)amino]-8-phenylpyrido[2,3-d]pyrimidin-7-one]
- inhibition of pEGFR (Western blot) ([2]; H1975, 10 μM, 4 h): showed inhibition of pEGFR
- protein modified (EGFR): Over 50%
- IC50 [3]: > 3000 nM

SMILES: C=CC(=O)Nc1cc(C(=O)Nc2nc3cccc(Cl)c3n2[C@@H]2CCCCN(C(=O)C=C)C2)cs1 [dual C775–C797 inhibitor]
- GI50 (BAF EGFR L858R cells): 10 nM
- GI50 [4]: 20 nM

- IC50 (wild-type EGFR (WT-EGFR); [6]): > 100000 nM
- IC50 (wild-type EGFR (WT-EGFR); [7]): > 100000 nM
- covalent adduct formation, in words (mLTC-EGFR): little to no modification
SMILES: CC#Cc1cc(=O)n(-c2ccccc2)c2nc(Nc3ccccc3OC)ncc12 [Compound S12]

SMILES: C=CC(=O)Nc1cc(Nc2nccc(-c3cn(C)c4ccccc34)n2)c(OC)cc1N(C)CCN(C)C [osimertinib, reference compound]
- inhibition of EGFR and ERK1/2 phosphorylation (Western blot) ([2]; H1975, 4 h exposure, concentration series): inhibition of EGFR and ERK1/2 phosphorylation was evident

- IC50 (wild-type EGFR (WT-EGFR); [5]): 77 nM
- IC50 (wild-type EGFR (WT-EGFR); [6]): 79.4 nM
- kinact [1]: 0.02 ± 0.0041 s⁻¹
- kinact/KI [1]: 8.2e+08 ± 8.3e+06 M⁻¹ s⁻¹
- Ki [1]: 24 ± 5.2 nM
SMILES: C#Cc1cc(=O)n(-c2ccccc2)c2nc(Nc3ccc(N4CCN(C)CC4)cc3)ncc12 [Compound 9, 5-Ethynyl-2-((4-(4-methylpiperazin-1-yl)phenyl)amino)-8-phenylpyrido[2,3-d]pyrimidin-7(8H)-one]

- IC50 (wild-type EGFR (WT-EGFR); [5]): 5100 nM
- IC50 (wild-type EGFR (WT-EGFR); [6]): 5010 nM
- kinact [1]: 0.0051 ± 0.00061 s⁻¹
- kinact/KI [1]: 3.3e+07 ± 440000 M⁻¹ s⁻¹
- Ki [1]: 160 ± 20 nM
SMILES: C#Cc1cc(=O)n(-c2ccccc2)c2nc(Nc3ccc(N(C)C(=O)CN(C)C)cc3OC)ncc12 [Compound 12, 2-(Dimethylamino)-N-(4-((5-ethynyl-7-oxo-8-phenyl-7,8-dihydropyrido[2,3-d]pyrimidin-2-yl)amino)-3-methoxyphenyl)-N-methylacetamide]

- Protein adduct formation (mLTC-EGFR): 1
SMILES: C=CC(=O)Nc1cccc(-c2nn(C)c3ncnc(N)c23)c1 [Compound S1]
